Patent US8389002B2, “Anti-cancer medicine both for diagnosing and treating cancer” (Youl Chon Chemical Co., Ltd., priority 2007, dated 2013)

Assays:
[1] = Pharmacokinetics: change in blood plasma concentration as time goes by; conditions: male, Sprague-Dawley, rat, iv, 10 mg/kg
Experimental: The Sprague Dawley (SD) adult male rat was slightly anesthetized with ketamine and acepromazine. Then, the femoral vein was subject to cannulation with physiological salt solution and the artery was subject to cannulation with polyethylene tubing (PE-50, intramedic, Clay-Adams) in which the physiological salt solution of 40 I.U./mL was filled, for which the heparin treatment was performed. […] At 0 (blank), 1, 5, 15, 30, 60 and 120 minutes after the administration, the blood 0.3 mL was respectively sampled, which was then centrifugally separated (13,000 rpm, 3 minutes) to separate about 0.1 mL of the blood plasma. Then, it was deproteinated and then analyzed with HPLC.
It was used the HPLC method using a reverse phase C-18 column (Shim-pack CLS-ODS, 4.6 mm I.D. 250 mm L., […] particle diameter). To the sampled blood plasma 0.1 mL were applied an internal standard material solution 50 μL ([…] daunomycin), the methanol 100 μL and the ethyl acetate 1.0 mL. The mixture solution was subject to vortexing for 3 minutes and centrifugally separated for 3 minutes (3,000 rpm) to take the organic layer only (1.0 mL), which was then dried with speed-vac. The remnants were re-composed into a moveable phase of 300 μL and 100 μL of which was then directly injected to a HPLC system. As the moveable phase of the HPLC system, a solution of the deionized water (pH=2.5 by phosphoric acid):acetonitrile=6:4 was used and a flow rate was 1 mL/min. As a HPLC detection method, a fluorescent analysis method was used at 470 nm excitation wavelength and 565 nm emission wavelength. The doxorubicin standard solution for making a calibration curve was made by dissolving it in the methanol so that it became 0.05, 0.1, 0.5, 1 and 3 μg/mL. When preparing a biological sample calibration curve, the standard solution 100 μL of doxorubicin 0.05, 0.1, 0.5, 1 and 3 μg/mL was put instead of methanol 100 μL for pre-treatment. Then, a calibration curve was made from which the doxorubicin in the blood plasma was obtained.

hepatoma = test: Tumor growth after administration in hepatoma model rat (MRI); type: in vivo; conditions: hepatoma SD-rat, 2 mg/kg tail vein, three times every 5 days, one week after last injection
Experimental: In order to make a hepatoma model, the water in which diethyl nitrosamine was diluted in a ratio of 1:10,000 was supplied to 8 weeks old SD-rat every day for 12 weeks until the tumor was generated. […] It was checked with MRI whether the tumor was after 10 weeks breeding. […] Again, the MRI photographing was made. The phleboclysis was performed three times every 5 days. Then, at one week after the last phleboclysis, the sizes of the tumors were compared through the MRI photographing.

## COc1cccc2c1C(=O)c1c(O)c3c(c(O)c1C2=O)C[C@@](O)(C(=O)CO)C[C@@H]3O[C@H]1C[C@H](N)[C@H](O)[C@H](C)O1 [FD, doxorubicin]
[1]; in vivo
  clearance: 37.9 ± 15.8 mL/min/kg
  half-life: 51.6 ± 34 min
[1]
  AUC: 4850 ng·h/mL
hepatoma
  size of the tumor in MRI photograph: became larger
